Among the data in ChEMBL document CHEMBL5154921, “Discovery and Characterization of the First Nonpeptide Antagonists for the Relaxin-3/RXFP3 System” (J Med Chem, 2022) are IC50, Activity and Ki values, retold here.

pIC50, pKi: −log10 of the molar value. The source made the active and inactive calls. No cut-off for these calls is given here.

The target in assay [1] is T1, Relaxin-3 receptor 1 (Homo sapiens, UniProt Q9NSD7).
T1 sequence (Q9NSD7 whole entry): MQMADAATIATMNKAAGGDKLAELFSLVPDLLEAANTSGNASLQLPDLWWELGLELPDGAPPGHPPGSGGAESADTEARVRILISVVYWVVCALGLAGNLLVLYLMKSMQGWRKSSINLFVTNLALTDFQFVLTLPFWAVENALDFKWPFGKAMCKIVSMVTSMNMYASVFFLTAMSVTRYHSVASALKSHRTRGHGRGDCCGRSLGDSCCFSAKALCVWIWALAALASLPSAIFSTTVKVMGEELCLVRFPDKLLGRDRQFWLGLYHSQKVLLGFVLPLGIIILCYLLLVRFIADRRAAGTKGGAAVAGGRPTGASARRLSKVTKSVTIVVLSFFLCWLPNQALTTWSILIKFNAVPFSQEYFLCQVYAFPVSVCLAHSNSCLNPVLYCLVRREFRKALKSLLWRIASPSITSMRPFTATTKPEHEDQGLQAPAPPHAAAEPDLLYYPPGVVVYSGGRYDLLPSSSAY
Description: Antagonist activity at human RXFP3 expressed in CHO-K1 cells assessed as forskolin-induced cAMP accumulation measured after 30 mins in presence of relaxin-3 by TR-FRET assay. The format is functional, cell-based. (Changes in cAMP serve as a functional read-out for many G protein-coupled receptors.)

For assay [2], the target named is T1, Relaxin-3 receptor 1. As to the kind of experiment: Antagonist activity at human RXFP3 expressed in CHO-K1 cells assessed as [35S]GTPgammaS binding incubated for 1 hr by [35S]GTP-gammaS binding assay. It is filed as functional, cell-based. On the technique in general: GTPγS resists hydrolysis and so accumulates on activated G proteins.
Assay [3] has as its target Relaxin receptor 1 (Homo sapiens) (UniProt Q9HBX9). As to the kind of experiment: Antagonist activity at human RXFP1 receptor expressed in CHO-K1 cells assessed as cAMP production at 10 to 30 uM in presence of relaxin-3 incubated for 30 mins by TR-FRET assay. The format is functional, cell-based. The conditions noted are these: filed as antagonist, dose 10-30 µM.
In assay [4] the target is T1, Relaxin-3 receptor 1.
The target of assay [5] is T1, Relaxin-3 receptor 1. As to the kind of experiment: Antagonist activity at human RXFP3 expressed in CHO-K1 cells assessed as inhibition of relaxin-3 stimulated ERK1/2 phosphorylation preincubated for 15 mins followed by relaxin-3 addition for 5 mins. It is filed as functional, cell-based.

Chain of Relaxin receptor 1 (Homo sapiens) (Q9HBX9 whole entry): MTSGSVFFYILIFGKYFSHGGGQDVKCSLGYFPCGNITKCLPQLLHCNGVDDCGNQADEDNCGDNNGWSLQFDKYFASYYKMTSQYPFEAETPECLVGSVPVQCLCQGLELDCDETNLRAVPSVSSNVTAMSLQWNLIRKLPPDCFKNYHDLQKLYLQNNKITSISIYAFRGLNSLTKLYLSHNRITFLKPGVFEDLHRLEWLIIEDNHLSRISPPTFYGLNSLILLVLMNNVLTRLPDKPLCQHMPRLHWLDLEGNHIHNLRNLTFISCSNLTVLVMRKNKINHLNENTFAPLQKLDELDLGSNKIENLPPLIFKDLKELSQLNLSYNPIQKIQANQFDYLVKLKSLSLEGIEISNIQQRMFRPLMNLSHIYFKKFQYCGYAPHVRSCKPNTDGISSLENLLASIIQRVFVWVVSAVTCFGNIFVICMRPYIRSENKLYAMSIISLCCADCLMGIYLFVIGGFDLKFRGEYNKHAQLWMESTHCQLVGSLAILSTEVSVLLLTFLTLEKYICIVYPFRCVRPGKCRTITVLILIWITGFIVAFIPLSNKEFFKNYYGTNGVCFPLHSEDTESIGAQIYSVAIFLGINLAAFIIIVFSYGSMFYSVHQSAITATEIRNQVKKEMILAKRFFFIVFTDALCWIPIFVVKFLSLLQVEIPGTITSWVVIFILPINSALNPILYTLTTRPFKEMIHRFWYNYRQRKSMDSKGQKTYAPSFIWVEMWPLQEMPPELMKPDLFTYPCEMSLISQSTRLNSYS

`Cc1ccc(-c2noc(-c3ccc(NC(=O)C4CC(=O)N(Cc5ccccc5F)C4)cc3)n2)cc1` (stereo not given): at Relaxin-3 receptor 1 [1], the pIC50 was under 5.00. Turning to `O=C(Nc1ccc(-c2nc(-c3ccc(Cl)cc3)no2)cc1)C1CC(=O)N(Cc2cccnc2)C1` (stereo not given), on Relaxin-3 receptor 1 [2], the pIC50 was 5.52. Also, the outcome in assay [3] was Active. Regarding `Cc1ccc(-c2noc(-c3ccc(NC(=O)C4CC(=O)N(Cc5cccc(F)c5)C4)cc3)n2)cc1` (stereo not given), at Relaxin-3 receptor 1 [1], the pIC50 is under 5.00. Still for that read-out and setting: the result for `Cc1ccc(-c2noc(-c3ccc(NC(=O)C4CC(=O)N(CCc5ccccc5)C4)cc3)n2)cc1` (stereo not given) reads under 5.00. Turning to H-RAAPYGVRLSGREFIRAVIFTSR-NH2, the pKi on Relaxin-3 receptor 1 [4] was 7.95. Also, the pIC50 on Relaxin-3 receptor 1 [1] was 6.30; at Relaxin-3 receptor 1 [5], 5.11. In the case of `Cc1ccc(-c2noc(-c3ccc(NC(=O)C4CC(=O)N(Cc5ccccn5)C4)cc3)n2)cc1` (stereo not given), on Relaxin-3 receptor 1 [1], the pIC50 was under 5.00.

As for `Cc1ccc(-c2noc(-c3ccc(NC(=O)C4CC(=O)N(Cc5cccnc5)C4)cc3)n2)cc1` (stereo not given), on Relaxin-3 receptor 1 [1], the pIC50 is 5.67.

For orientation: pIC50 means the negative decadic logarithm of the IC50, by convention in mol/L. The pKi is −log10 of the Ki, conventionally taken in molar units. A higher pKi goes with a low Ki.
